{
  "source": "paper PMC9141032",
  "about": "(International Journal of Molecular Sciences, 2022)",
  "key": {"[1]": {"assay": "Chemical stability in buffers at pH 2, 5 and 7.4"}, "SH-SY5Y cells [2]": {"tested_on": "SH-SY5Y cells", "assay": "Cytotoxicity in SH-SY5Y cells (MTT)", "settings": "24 h, 0.2 to 20 μM"}, "[3]": {"assay": "In vivo pharmacokinetics in plasma", "set-up": "species or system mouse", "procedure": "(§1) After treatment, mice were euthanized, and the plasma and brain were collected.\n(§2) Male CD1 mice were supplied by the Laboratory Animal Service of the University of Granada (Granada, Spain) and housed in the Animal Facilities of the Center of Biomedical Investigation of the University of Granada. […] Calculations were performed using noncompartmental analysis of plasma data after intraperitoneal injection by means of PK Solver 2.0.\n(§3) Basic PK parameters were calculated."}, "SAMP8 murine model": {"tested_on": "SAMP8 murine model", "settings": "cited from earlier work"}, "[4]": {"set-up": "method as in ref 32, 33 = [32]; 32. Escolano C. Pallás M. Griñán-Ferré C. Abás S. Callado L.-F. García-Sevilla J.A. Synthetic I 2 Imidazoline Receptor Ligands for Prevention or Treatment of Human Brain Disorders Patent WO 2019/12185 || [33]; PMID 32150414; doi:10.1021/acs.jmedchem.9b02080; 33. Abás S. Rodríguez-Arévalo S. Bagán A. Griñán-Ferré C. Vasilopoulou F. Brocos-Mosquera I. Muguruza C. Pérez B. Molins E. Luque F.J. Bicyclic α-Iminophosphonates as High Affinity Imidazoline I 2 Rec", "settings": "cited from earlier work"}, "primary microglial cells": {"tested_on": "primary microglial cells", "assay": "Nitrite production (Griess) in LPS-treated primary microglia", "settings": "1 μM 1 h, then LPS 10 μg/mL 24 h"}, "primary astrocytes": {"tested_on": "primary astrocytes", "assay": "Nitrite production (Griess) in LPS-treated primary astrocytes", "settings": "1 μM 1 h, then LPS 10 μg/mL 24 h"}, "[5]": {"set-up": "method as in ref 33 = [33]; PMID 32150414; doi:10.1021/acs.jmedchem.9b02080; 33. Abás S. Rodríguez-Arévalo S. Bagán A. Griñán-Ferré C. Vasilopoulou F. Brocos-Mosquera I. Muguruza C. Pérez B. Molins E. Luque F.J. Bicyclic α-Iminophosphonates as High Affinity Imidazoline I 2 Rec", "settings": "previous studies, cited from earlier work"}, "[6]": {"set-up": "method as in ref 33 = [33]; PMID 32150414; doi:10.1021/acs.jmedchem.9b02080; 33. Abás S. Rodríguez-Arévalo S. Bagán A. Griñán-Ferré C. Vasilopoulou F. Brocos-Mosquera I. Muguruza C. Pérez B. Molins E. Luque F.J. Bicyclic α-Iminophosphonates as High Affinity Imidazoline I 2 Rec", "settings": "1% DMSO and 99% PBS buffer; cited from earlier work"}, "[7]": {"assay": "In vivo pharmacokinetics in brain", "settings": "male, CD1, mouse, ip, mice, 10 mg/kg intraperitoneal", "procedure": "as §1, §2, §3"}, "adult rats": {"tested_on": "adult rats", "set-up": "method as in ref 33 = [33]; PMID 32150414; doi:10.1021/acs.jmedchem.9b02080; 33. Abás S. Rodríguez-Arévalo S. Bagán A. Griñán-Ferré C. Vasilopoulou F. Brocos-Mosquera I. Muguruza C. Pérez B. Molins E. Luque F.J. Bicyclic α-Iminophosphonates as High Affinity Imidazoline I 2 Rec", "settings": "20 and 35 mg/kg intraperitoneally, 1 and 2 h postinjection; cited from earlier work"}, "culture cells": {"tested_on": "culture cells", "set-up": "method as in ref 32, 33 = [32]; 32. Escolano C. Pallás M. Griñán-Ferré C. Abás S. Callado L.-F. García-Sevilla J.A. Synthetic I 2 Imidazoline Receptor Ligands for Prevention or Treatment of Human Brain Disorders Patent WO 2019/12185 || [33]; PMID 32150414; doi:10.1021/acs.jmedchem.9b02080; 33. Abás S. Rodríguez-Arévalo S. Bagán A. Griñán-Ferré C. Vasilopoulou F. Brocos-Mosquera I. Muguruza C. Pérez B. Molins E. Luque F.J. Bicyclic α-Iminophosphonates as High Affinity Imidazoline I 2 Rec", "settings": "plethora of culture cells; cited from earlier work"}, "5xFAD murine model": {"tested_on": "5xFAD murine model", "set-up": "method as in ref 32, 33 = [32]; 32. Escolano C. Pallás M. Griñán-Ferré C. Abás S. Callado L.-F. García-Sevilla J.A. Synthetic I 2 Imidazoline Receptor Ligands for Prevention or Treatment of Human Brain Disorders Patent WO 2019/12185 || [33]; PMID 32150414; doi:10.1021/acs.jmedchem.9b02080; 33. Abás S. Rodríguez-Arévalo S. Bagán A. Griñán-Ferré C. Vasilopoulou F. Brocos-Mosquera I. Muguruza C. Pérez B. Molins E. Luque F.J. Bicyclic α-Iminophosphonates as High Affinity Imidazoline I 2 Rec", "settings": "5 mg/kg in drinking water, 4 weeks; cited from earlier work"}, "SH-SY5Y cells [8]": {"tested_on": "SH-SY5Y cells", "assay": "Nitrite production (Griess) in 6-OHDA-treated SH-SY5Y cells", "type": "cell-based, human", "settings": "1 μM, 6-OHDA 25 μM 16 h", "text": "Along with the neuronal loss, neuroinflammation is a process related to the onset of the disease, and it is an important contributor to the pathogenesis and progression of these disorders. […] ."}, "[9]": {"settings": "male, CD1, mouse, ip, plasma, mice, 10 mg/kg intraperitoneal"}, "[10]": {"settings": "plasma, mice, 10 mg/kg intraperitoneal"}},
  "note": "Several values for one entry are separate records, joined by “and”; a condition that tells them apart may be missing. Identical values can stand only once.",
  "data": [
    {"smiles": "CCOP(=O)(OCC)[C@]1(c2ccccc2)N=C[C@H]2C(=O)N(c3ccc(F)c(Cl)c3)C(=O)[C@H]21", "note": "(racemic) [B06, diethyl (1RS,3aSR,6aSR)-5-(3-chloro-4-fluorophenyl)-4,6-dioxo-1-phenyl-1,3a,4,5,6,6a-hexahydropyrrolo[3,4-c]pyrrole-1-phosphonate]", "values": [
      {"measurement": "% B06 Remaining", "setting": "[1]; pH 2, 37 °C, 0 min", "value": "100 ± 8.84", "unit": "%"},
      {"measurement": "% B06 Remaining", "setting": "[1]; pH 2, 37 °C, 5 min", "value": "104 ± 9.81", "unit": "%"},
      {"measurement": "% B06 Remaining", "setting": "[1]; pH 2, 37 °C, 15 min", "value": "98 ± 11.30", "unit": "%"},
      {"measurement": "% B06 Remaining", "setting": "[1]; pH 2, 37 °C, 30 min", "value": "106 ± 9.97", "unit": "%"},
      {"measurement": "% B06 Remaining", "setting": "[1]; pH 2, 37 °C, 60 min", "value": "112 ± 11.2", "unit": "%"},
      {"measurement": "% B06 Remaining", "setting": "[1]; pH 2, 37 °C, 120 min", "value": "96 ± 13.6", "unit": "%"},
      {"measurement": "chemical stability", "setting": "[1]; pH 2, up to 120 min", "value": "stable at pH 2"},
      {"measurement": "chemical stability", "setting": "[1]; pH 5", "value": "stable up to 1 h"},
      {"measurement": "% B06 Remaining", "setting": "[1]; pH 5, 37 °C, 0 min", "value": "100 ± 3.3", "unit": "%"},
      {"measurement": "% B06 Remaining", "setting": "[1]; pH 5, 37 °C, 5 min", "value": "97 ± 6.5", "unit": "%"},
      {"measurement": "% B06 Remaining", "setting": "[1]; pH 5, 37 °C, 15 min", "value": "100 ± 3.9", "unit": "%"},
      {"measurement": "% B06 Remaining", "setting": "[1]; pH 5, 37 °C, 30 min", "value": "87 ± 11.3", "unit": "%"},
      {"measurement": "% B06 Remaining", "setting": "[1]; pH 5, 37 °C, 60 min", "value": "98 ± 10.1", "unit": "%"},
      {"measurement": "% B06 Remaining", "setting": "[1]; pH 5, 37 °C, 120 min", "value": "75 ± 8.5", "unit": "%"},
      {"measurement": "% of the compound that suffered structural changes", "setting": "[1]; pH 5, between 1 h and 2 h", "value": 25, "unit": "%"},
      {"measurement": "% B06 Remaining", "setting": "[1]; pH 7.4, 37 °C, 0 min", "value": "100 ± 2.9", "unit": "%"},
      {"measurement": "% B06 Remaining", "setting": "[1]; pH 7.4, 37 °C, 15 min", "value": "77 ± 3.8", "unit": "%"},
      {"measurement": "% B06 Remaining", "setting": "[1]; pH 7.4, 37 °C, 30 min", "value": "75% and 75 ± 5.6%"},
      {"measurement": "% B06 Remaining", "setting": "[1]; pH 7.4, 37 °C, 60 min", "value": "53 ± 6.4", "unit": "%"},
      {"measurement": "% B06 Remaining", "setting": "[1]; pH 7.4, 37 °C, 120 min", "value": "19% and 19 ± 1.9%"},
      {"measurement": "% of the compound transformed", "setting": "[1]; pH 7.4, 15 min", "value": 25, "unit": "%"},
      {"measurement": "cytotoxic effect on cell cultures (MTT)", "setting": "SH-SY5Y cells [2]", "value": "None of the concentrations used were cytotoxic"},
      {"measurement": "AUC(0-inf)", "setting": "[3]; [9]", "value": 3050, "unit": "ng·h/mL"},
      {"measurement": "Tmax", "setting": "[3]; [9]", "value": 0.25, "unit": "h"},
      {"measurement": "Cmax", "setting": "[3]; male, CD1, mouse, ip, plasma, mice, 10 mg/kg intraperitoneal, single dose", "value": "950 ± 624", "unit": "ng/mL"},
      {"measurement": "AUC(0-t)", "setting": "[3]; male, CD1, mouse, ip, plasma, mice, 10 mg/kg intraperitoneal, read-out: AUC0–1440 (converted)", "value": 2950, "unit": "ng·h/mL"},
      {"measurement": "half-life", "setting": "[3]; male, CD1, mouse, plasma, ip, 10 mg/kg, mice, 10 mg/kg intraperitoneal", "value": 5.21, "unit": "h"},
      {"measurement": "Cl (plasma clearance)", "setting": "[3]; [10]", "value": "0.054 ± 0.011 (mg/kg)/(μg/mL)"},
      {"measurement": "Vz (volume of distribution)", "setting": "[3]; [10]", "value": "24.56 ± 4.74 (mg/kg)/(μg/mL)"},
      {"measurement": "t1/2", "setting": "[3]; plasma, mice, 10 mg/kg intraperitoneal, 10 mg/kg", "value": 5.2135, "unit": "h"},
      {"measurement": "maximum mean concentration in plasma as % of the drug administered", "setting": "[3]; single dose intraperitoneally", "value": "≤ 1", "unit": "%"},
      {"measurement": "effect on cognition and behaviour", "setting": "SAMP8 murine model", "value": "improving cognition and ameliorating anxiety-like behaviour"},
      {"measurement": "Pe value in PAMPA (BBB permeation)", "setting": "[4]", "value": "well above the threshold established for high BBB permeation"},
      {"measurement": "effect on nitrite production", "setting": "primary microglial cells", "value": "significant decrease in nitrite production"},
      {"measurement": "effect on nitrite production", "setting": "primary astrocytes", "value": "significant decrease in nitrite production"},
      {"measurement": "mice microsomal percentage remanent", "setting": "[5]; 60 min", "value": 65.08, "unit": "%"},
      {"measurement": "t ½ in mice microsomes", "setting": "[5]", "value": 1.529, "unit": "h"},
      {"measurement": "solubility", "setting": "[6]", "value": 92, "unit": "µM"},
      {"measurement": "AUC(0-inf)", "setting": "[7]; in vivo", "value": 3310, "unit": "ng·h/mL"},
      {"measurement": "Cmax", "setting": "[7]; in vivo", "value": "128 ± 66", "unit": "ng/mL"},
      {"measurement": "Tmax", "setting": "[7]; in vivo", "value": 0.25, "unit": "h"},
      {"measurement": "AUC(0-t)", "setting": "[7]; in vivo, read-out: AUC0–480 (converted)", "value": 2320, "unit": "ng·h/mL"},
      {"measurement": "half-life", "setting": "[7]", "value": 4.28, "unit": "h"},
      {"measurement": "effect on body temperature", "setting": "adult rats", "value": "hypothermia"},
      {"measurement": "cytotoxicity", "setting": "culture cells", "value": "devoid of cytotoxicity"},
      {"measurement": "effect on cognition", "setting": "5xFAD murine model", "value": "improving cognition and ameliorating the neurodegenerative condition"},
      {"measurement": "effect on nitrite production", "setting": "SH-SY5Y cells [8]", "value": "significantly reversed the increase in nitrite production"}
    ]}
  ]
}
